# Experimental data as given in patent US10738028B2, “Spiro three-membered ring, spiro five-membered ring peptide deformylase inhibitor and use thereof in antibacteria and anti-tumor” (priority 2016, dated 2020).
# Tests used:
# Type in all cases: cell-based
# [1] = tested on: HCT-116 colorectal cancer cell line; assay: CCK-8 proliferation inhibition; conditions: Homo sapiens, HCT-116, 72 h, concentration of 30 μM; 72 hours; CCK-8; read-out: HCT116 inhibition rate/%
# Protocol: (1) HCT-116 colorectal cancer cell line, A549 lung cancer cell line, MGC-803 gastric cancer cell line, BEL-7402 liver cancer cell line, Jurkat T cell leukemia cell line, HL60 acute myeloid leukemia cell line, Hela cervical cancer cell line, MCF-7 breast cancer cell line, PC3 prostate cancer cell line and SAOS-2 osteosarcoma cell line were made into single cell suspension, 180 μL of which was inoculated into 96-well culture plate, which was cultured overnight in CO2 incubator (37° C., 5% CO2, 95% air).
# (2) Each of the spiro three-membered ring, spiro five membered ring peptide deformylase inhibitors was dissolved in DMSO, and was further formulated into drug solution with required different final concentration using corresponding cell culture medium. The drug solutions were added to the above cells respectively (20 μL/well), with the control group added with 1‰ DMSO, and cultured in a CO2 incubator for 72 hours.
# (3) After incubation for 72 hours, the culture solution was decanted, and 100 μL of 1:10 diluted CCK-8 solution was added.
# Wherein, in step (1), the concentration of the single cell suspension was 2000 cells/well.
# Wherein, in step (2), HCT-116 cells were cultured in McCoy's 5A medium (containing 10% newborn bovine serum, 1% double antibody); A549 and PC3 cells were cultured in F12 medium (containing 10% newborn bovine serum, 1% double antibody); MGC-803, BEL-7402, SAOS-2, Jurkat and HL60 cells were cultured in 1640 medium (containing 10% newborn bovine serum, 1% double antibody); and MCF-7 and Hela cells were cultured in DMEM high glucose medium (containing 10% newborn bovine serum, 1% double antibody).
# [2] = tested on: methicillin-sensitive Staphylococcus aureus (MSSA); assay: MIC, two-fold agar dilution (CLSI), clinical isolates
# From the text: (§1) 1. The invention adopts the two-fold agar dilution method recommended by the operating procedure of antimicrobial susceptibility testing set by American Clinical and Laboratory Standards Institute (CLSI) to determine the Minimum Inhibitory Concentration (MIC) of the test samples against the tested strains.
# [3] = tested on: methicillin-resistant Staphylococcus epidermidis (MRSE); assay: as above
# From the text: as §1
# [4] = tested on: Streptococcus pneoumoniae (SPN); assay: as above
# From the text: as §1
# [5] = tested on: methicillin-sensitive Staphylococcus epidermidis (MSSE); assay: as above
# From the text: as §1
# [6] = tested on: Enterococcus faecium (EFM); assay: as above
# From the text: as §1
# [7] = tested on: Moraxella catarrhalis (BCA); assay: as above
# From the text: as §1
# [8] = tested on: Enterococcus faecalis (EFA); assay: as above
# From the text: as §1
# [9] = tested on: methicillin-resistant Staphylococcus aureus (MRSA); assay: as above
# From the text: as §1
# [10] = tested on: Escherichia coli (including ESBLs, non-ESBLs); assay: as above
# From the text: as §1
smiles,measurement,setting,value
CCCC[C@H](CN(O)C=O)C(=O)N1CC2(CC2)C[C@H]1C(=O)Nc1ccc(N2CCOCC2)cc1 [Example 14],inhibition at 30 µM,[1],21%
same,MIC (anti-bacterial activity),[2]; strain MSSA 15-3,1 µg/mL
same,MIC (anti-bacterial activity),[2]; strain MSSA 15-4,1 µg/mL
same,MIC (anti-bacterial activity),[2]; strain MSSA 15-5,0.25 µg/mL
same,MIC (anti-bacterial activity),[2]; strain MSSA 15-6,1 µg/mL
same,MIC (anti-bacterial activity),[3]; strain MRSE 15-1,0.25 µg/mL
same,MIC (anti-bacterial activity),[3]; strain MRSE 15-2,0.25 µg/mL
same,MIC (anti-bacterial activity),[3]; strain MRSE 15-3,1 µg/mL
same,MIC (anti-bacterial activity),[3]; strain MRSE 15-7,1 µg/mL
same,MIC (anti-bacterial activity),[4]; strain SPN 16-2,8 µg/mL
same,MIC (anti-bacterial activity),[4]; strain SPN 16-4,0.5 µg/mL
same,MIC (anti-bacterial activity),[5]; strain MSSE 15-3,0.25 µg/mL
same,MIC (anti-bacterial activity),[5]; strain MSSE 15-4,0.25 µg/mL
same,MIC (anti-bacterial activity),[5]; strain MSSE 15-5,0.25 µg/mL
same,MIC (anti-bacterial activity),[5]; strain MSSE 15-6,0.125 µg/mL
same,MIC (anti-bacterial activity),[6]; strain EFM 15-1,1 µg/mL
same,MIC (anti-bacterial activity),[6]; strain EFM 15-2,2 µg/mL
same,MIC (anti-bacterial activity),[6]; strain EFM 15-3,0.5 µg/mL
same,MIC (anti-bacterial activity),[6]; strain EFM 15-4,4 µg/mL
same,MIC (anti-bacterial activity),[6]; strain EFM 15-5,0.5 µg/mL
same,MIC (anti-bacterial activity),[6]; strain EFM 15-6,2 µg/mL
same,MIC (anti-bacterial activity),[7]; strain BCA 14-1,4 µg/mL
same,MIC (anti-bacterial activity),[7]; strain BCA 14-4,2 µg/mL
same,MIC (anti-bacterial activity),[7]; strain BCA 14-5,2 µg/mL
same,MIC (anti-bacterial activity),[7]; strain BCA 14-6,2 µg/mL
same,MIC (anti-bacterial activity),[7]; strain BCA 14-7,1 µg/mL
same,MIC (anti-bacterial activity),[7]; strain BCA 14-8,2 µg/mL
same,MIC (anti-bacterial activity),[7]; strain BCA 14-10,0.5 µg/mL
same,MIC (anti-bacterial activity),[8]; strain EFA 15-1,8 µg/mL
same,MIC (anti-bacterial activity),[8]; strain EFA 15-2,8 µg/mL
same,MIC (anti-bacterial activity),[8]; strain EFA 15-3,2 µg/mL
same,MIC (anti-bacterial activity),[8]; strain EFA 15-4,8 µg/mL
same,MIC (anti-bacterial activity),[8]; strain EFA 15-5,8 µg/mL
same,MIC (anti-bacterial activity),[8]; strain EFA 15-6,8 µg/mL
same,MIC (anti-bacterial activity),[8]; strain EFA 15-9,8 µg/mL
same,MIC (anti-bacterial activity),[9]; strain MRSA 15-1,1 µg/mL
same,MIC (anti-bacterial activity),[9]; strain MRSA 15-2,1 µg/mL
same,MIC (anti-bacterial activity),[9]; strain MRSA 15-3,1 µg/mL
same,MIC (anti-bacterial activity),[9]; strain MRSA 15-4,1 µg/mL
same,MIC (anti-bacterial activity),[10]; strain ECO+ 15-1,> 32 µg/mL
same,MIC (anti-bacterial activity),[10]; strain ECO+ 15-2,> 32 µg/mL
same,MIC (anti-bacterial activity),[10]; strain ECO+ 15-3,> 32 µg/mL
same,MIC (anti-bacterial activity),[10]; strain ECO+ 15-4,> 32 µg/mL
same,MIC (anti-bacterial activity),[10]; strain ECO− 15-1,> 32 µg/mL
same,MIC (anti-bacterial activity),[10]; strain ECO− 15-2,> 32 µg/mL
same,MIC (anti-bacterial activity),[10]; strain ECO− 15-3,> 32 µg/mL
same,MIC (anti-bacterial activity),[10]; strain ECO− 15-4,> 32 µg/mL
"C[C@H]1COc2c(N3CCN(C)CC3)c(F)cc3c(=O)c(C(=O)O)cn1c23 [levofloxacin, reference compound]",Anti-bacterial activity (MIC),[2]; strain MSSA 15-3,16 µg/mL
same,Anti-bacterial activity (MIC),[2]; strain MSSA 15-4,0.5 µg/mL
same,Anti-bacterial activity (MIC),[2]; strain MSSA 15-5,64 µg/mL
same,Anti-bacterial activity (MIC),[2]; strain MSSA 15-6,16 µg/mL
same,Anti-bacterial activity (MIC),[3]; strain MRSE 15-1,16 µg/mL
same,Anti-bacterial activity (MIC),[3]; strain MRSE 15-2,16 µg/mL
same,Anti-bacterial activity (MIC),[3]; strain MRSE 15-3,16 µg/mL
same,Anti-bacterial activity (MIC),[3]; strain MRSE 15-7,16 µg/mL
same,Anti-bacterial activity (MIC),[4]; strain SPN 16-2,1 µg/mL
same,Anti-bacterial activity (MIC),[4]; strain SPN 16-4,1 µg/mL
same,Anti-bacterial activity (MIC),[5]; strain MSSE 15-3,0.5 µg/mL
same,Anti-bacterial activity (MIC),[5]; strain MSSE 15-4,0.5 µg/mL
same,Anti-bacterial activity (MIC),[5]; strain MSSE 15-5,0.5 µg/mL
same,Anti-bacterial activity (MIC),[5]; strain MSSE 15-6,0.25 µg/mL
same,Anti-bacterial activity (MIC),[6]; strain EFM 15-1,> 128 µg/mL
same,Anti-bacterial activity (MIC),[6]; strain EFM 15-2,> 128 µg/mL
same,Anti-bacterial activity (MIC),[6]; strain EFM 15-3,> 128 µg/mL
same,Anti-bacterial activity (MIC),[6]; strain EFM 15-4,> 128 µg/mL
same,Anti-bacterial activity (MIC),[6]; strain EFM 15-5,> 128 µg/mL
same,Anti-bacterial activity (MIC),[6]; strain EFM 15-6,128 µg/mL
same,Anti-bacterial activity (MIC),[7]; strain BCA 14-1,1 µg/mL
same,Anti-bacterial activity (MIC),[7]; strain BCA 14-5,4 µg/mL
same,Anti-bacterial activity (MIC),[7]; strain BCA 14-6,8 µg/mL
same,Anti-bacterial activity (MIC),[7]; strain BCA 14-8,1 µg/mL
same,Anti-bacterial activity (MIC),[8]; strain EFA 15-1,> 128 µg/mL
same,Anti-bacterial activity (MIC),[8]; strain EFA 15-2,> 128 µg/mL
same,Anti-bacterial activity (MIC),[8]; strain EFA 15-4,1 µg/mL
same,Anti-bacterial activity (MIC),[8]; strain EFA 15-5,1 µg/mL
same,Anti-bacterial activity (MIC),[8]; strain EFA 15-6,> 128 µg/mL
same,Anti-bacterial activity (MIC),[8]; strain EFA 15-9,128 µg/mL
same,Anti-bacterial activity (MIC),[9]; strain MRSA 15-1,64 µg/mL
same,Anti-bacterial activity (MIC),[9]; strain MRSA 15-2,> 128 µg/mL
same,Anti-bacterial activity (MIC),[9]; strain MRSA 15-3,> 128 µg/mL
same,Anti-bacterial activity (MIC),[9]; strain MRSA 15-4,> 128 µg/mL
same,Anti-bacterial activity (MIC),[10]; strain ECO+ 15-2,64 µg/mL
same,Anti-bacterial activity (MIC),[10]; strain ECO+ 15-4,1 µg/mL
same,Anti-bacterial activity (MIC),[10]; strain ECO− 15-1,0.03 µg/mL
same,Anti-bacterial activity (MIC),[10]; strain ECO− 15-2,128 µg/mL
same,Anti-bacterial activity (MIC),[10]; strain ECO− 15-3,0.06 µg/mL
same,Anti-bacterial activity (MIC),[10]; strain ECO− 15-4,0.06 µg/mL
